Reference: EP2835640A1, “Method for predicting the skin sensitizing activity of a compound” (Academisch Ziekenhuis Leiden HODN Leids Universitair …, priority 2013, dated 2015)
Residues, ends and D or L forms follow the SMILES beside them. *: point of attachment. Cbz = O=C(OCc1ccccc1)*

Assays:
[1] = system: NEMs; assay: MTT cell viability assay, epidermal model; conditions: topical exposure
Protocol: The LEMs and the NEMs were constructed by seeding 200.000 cells on insert filters (12 wells plate, polyester membrane, Costar) in Dermalife K medium including lifefactors (Lifeline Cell Technology, Walkersville, MD) until full density was reached. […] Thereafter they were cultured in CNT medium (basal medium plus supplement kit, CellnTec, Bern, Switzerland). […] Medium was refreshed every 2 days. LEMs and NEMs were air-exposed for 12 days at 37 °C and 7.3% CO2 prior to analysis.
Twelve days air-exposed LEMs or NEMs were covered with a 11 mm filter paper disc (Finn Chamber, Phoenix, USA). Chemicals with different doses were applied onto the filters and incubated for 24 h and thereafter washed away with PBS. LEMs or NEMs were then incubated with thiazolyl blue tetrazolium bromide (MTT), (Sigma). MTT stock of 5 mg/ml PBS (filter sterilized) was diluted to a final concentration of 1 mg/ml in colourless DMEM medium. MTT medium was added to the cell cultures and incubated for 3 h at 37°C. Viable cells were then allowed to reduce the tetrazolium dye to its insoluble formazan, which has a purple colour. Therefore, after 3 hours, the MTT was removed and washed away with PBS. After drying, the formazan was dissolved in 2ml of isopropanol overnight at room temperature. Absorbance was measured at 570 nm using a plate reader (TECAN infinite F200) in order to calculate the cell viability.

[2] = skin sensitizing potency; cited from earlier work
[3] = system: Nrf2 dependent genes; assay: Quantitative PCR of gene expression, NEMs; type: cell-based, human; conditions: 4 h, mRNA
Protocol: Medium was refreshed every 2 days.
(§1) Total RNA was prepared using RNeasy mini kit (Qiagen) according to the manufacturer's protocol. RNA was quantified using a Nanodrop ND-1000 spectrophotometer. First- strand cDNA synthesis was derived from 1 ug of total RNA using the iscript cDNA synthesis kit (Biorad) according to the manufacturer's protocol. Primers were tested in normal KC cDNA. Stability of reference genes was analyzed with the GeNorm method (Vandesompele et al., 2002). Expression analysis was performed with the BioRad software (iQ5) and was based on the delta delta Ct method with the reference genes that were most stably expressed according to the GeNorm analysis.
(§2) Expression levels of the following genes were measured: HMOX-1 (Hemeoxygenase-1), GCLM (Glutamate-cysteine ligase modifier subunit), TXNRD1 (Thioredoxin reductase 1), OSGIN-1 (oxidative stress induced growth inhibitor 1), B2M (Beta-2 microglobulin), GUSB (Glucuronidase beta) and TBP (TATA binding protein). Quantitative real-time PCR was determined by using the following primer sets: • 5'-[…]-'3 (HMOX-1), • 5'-[…]-'3 GCLM), • 5'-[…]-'3 (TXNRD1), • 5'- TGCTGCAGAGGAAGCTCAC-'3 (OSGIN1), • 5'-[…]-'3 (B2M), • 5'-[…]-'3 (GUSB), • 5'-[…]-'3 (TBP).
(§3) Real-Time PCRs were performed in 10 µl reaction volumes using the MylQ system and SYBR Green PCR Master- mix (Biorad) according to the manufacturer's protocol. […]

[4] = system: Nrf2 dependent genes; assay: Quantitative PCR of gene expression, monolayer primary keratinocytes; type: cell-based, human; conditions: 4 h, mRNA
Protocol: as §1, §2, §3

[5] = system: Nrf2 dependent genes; assay: Quantitative PCR of gene expression, N/TERT monolayer cultures; type: cell-based, human; conditions: 4 h, mRNA
Protocol: as §1, §2
Real-Time PCRs were performed in 10 µl reaction volumes using the MylQ system and SYBR Green PCR Master- mix (Biorad) according to the manufacturer's protocol.
The PCR cycles were: 3 minutes at 95 °C to activate the polymerase, 40 cycles of 20 seconds at 95 °C and 40 seconds at 60 °C, followed by the generation of a melt curve.
All qPCR values were averaged relative to the three different reference genes: B2M, GUSB, TBP. For each data point, PCRs were performed in duplicate and values represent means ± standard deviation.

[6] = system: Monolayer keratinocytes; assay: WST-1 cell viability assay, monolayers; type: cell-based, human; conditions: WST-1, 24 h of treatment
Protocol: Cell viability of monolayers was measured using WST-1 assay (Roche diagnostics, Mannheim, Germany). Briefly, cells were seeded in 96-well flat-bottom plates (Greiner Bio-One, Frickenhausen, Germany) in 100 µl of culture medium 24-48 h prior to chemical treatment. After 24 h of treatment with an irritant or sensitizer, 10 µl of WST-1 reagent was added and plates were further incubated up to 3 h at 37°C. […] Monolayer keratinocytes were exposed to DNCB (10 µM) and SDS (80µM) at 80% cell viability concentrations.

[7] = system: Nrf2; assay: Nrf2 nuclear translocation by immunohistochemical analysis, NEMs; type: cell-based, human; conditions: NEMs 12 days air-exposed, 4 h treatment
[8] = system: Nrf2; assay: Nuclear fractionation and Western blot, N/TERT monolayer cultures; type: cell-based, human
Source text: (§4) Nuclear fractions of monolayer cultures and reconstructed epidermis were isolate using a Nuclear extract kit (Active motif, Carlsbad, CA) according to the manufacturer's protocol. Nuclear fractions were subjected to Western blot analysis.
(§5) Monolayer cells were lysed in M-Per buffer (Thermo Scientific, Rockford, USA), reconstructed epidermis was cut in pieces and lysed in T-Per lysis buffer (Thermo Scientific, Rockford, USA) both supplemented with protease inhibitor cocktail EDTA-free and HALTTM phosphatase inhibitors (Thermo Scientific). Cell lysates were measured using the BCATM protein assay kit (Thermo Scientific). Equal amounts of proteins were separated by SDS-page. Proteins were transferred onto PVDF- transfer membranes (Thermo Scientific). […] After four times washing with PBST, proteins were detected by enhanced chemi-luminescence (Super signal West femto (Pierce Thermo Scientific, Rockford, USA) and visualized by exposure to X-ray film (Fujifilm Europe GmbH, Düsseldorf, Germany).
(§6) Next we investigated whether Nrf2 expression could be stabilized by inhibiting the proteasome that is responsible for a constitutive degradation of Nrf2. […] Although the Nrf2 translocation was clearly visible, we used a second approach enabling quantification of the amount of translocated Nrf2. […]

[9] = system: Nrf2; assay: Nuclear fractionation and Western blot, monolayer primary keratinocytes; type: cell-based, human
Source text: as §4, §5, §6

CC=Cc1ccc(O)c(OC)c1 [IsoEu, Isoeugenol]
concentrations of 80 - 85% CV [1]: 15 mM | Potency category [2]: moderate

Nc1ccc(N)cc1 [PPD, p-Phenylenediamine]
concentrations of 80 - 85% CV [1]: 35 mM

O=[N+]([O-])c1ccc(Cl)c([N+](=O)[O-])c1 [DNCB, 2,4-dinitrochlorobenzene]
Expression of GLCM [3]: approx. 3,2 fold | Expression of OSGIN-1 [3]: approx. 2 fold | concentrations of 80 - 85% CV [1]: 0.5 mM | Expression of GCLM [4]: approx. 1,2 fold | Expression of OSGIN-1 [4]: approx. 1,2 fold | Expression of GCLM [5]: approx. 1,2 fold | Expression of OSGIN-1 [5]: approx. 1,2 fold | Expression of TXNRD-1 [5]: approx. 1,2 fold | 80% cell viability concentrations [6]: 10 µM

CCCCCCCCCCCCOS(=O)(=O)[O-].[Na+] [SDS, Sodium Dodecyl Sulfate]
Nrf2 in the nuclei [7]: Nrf2 was only translocated to the nucleus after DNCB treatment | 80% cell viability concentrations [6]: 80 µM

CC(C)C[C@@H](C=O)NC(=O)[C@H](CC(C)C)NC(=O)[C@H](CC(C)C)NC(=O)OCc1ccccc1 [MG132] (Cbz-Leu-Leu-Leu-aldehyde)
Nrf2 protein levels in nuclear lysates [8]: elevated levels of Nrf2 | Nrf2 protein levels in nuclear lysates [9]: elevated levels of Nrf2
